Results as given in patent US20240207249A1, “COMPOSITIONS AND METHODS FOR TREATING, PREVENTING OR REVERSING AGE-ASSOCIATED INFLAMMATION AND DISORDER” (Brown University, priority 2019, published 2024).
Entries after “also recorded” stand apart in the source; their conditions may differ. Where two headings read alike, the source gives them in different places.

What was measured:
[1] = target: human L1 EN domain (1-239) (Homo sapiens (Human), UniProt O00370); experiment: plasmid nicking L1 EN activity biochemical assay
APE-1 = APE-1 (Homo sapiens (Human), UniProt P27695); details: cited from earlier work
L1 EN = L1 EN (Homo sapiens (Human), UniProt O00370); experiment: fluorescent oligonucleotide nicking assay; format: biochemical
L1 retrotransposition = L1 retrotransposition dual-luciferase reporter cellular assay in HeLa-M2 cells; format: cell-based, human; details: for Cellular assay: retrotransposition efficiency (mean ± SD): Table 2
[2] = test system: senescent human diploid fibroblasts (LF1); experiment: RT-qPCR of inflammatory markers in replicative senescent cells; format: cell-based
[3] = test system: full-length L1 (ORF1 and ORF2) in HeLa Tet-On cells; experiment: L1-induced DNA damage, γ-H2AX immunofluorescence, full-length L1 expression; format: cell-based, human
[4] = solubility remark in cellular assay column; details: reason for no cellular data
[5] = test system: L1 EN domain in HeLa Tet-On cells; experiment: L1-induced DNA damage, γ-H2AX immunofluorescence and neutral comet assay, EN domain-only expression; format: cell-based, human
[6] = test system: senescent human diploid fibroblasts (LF1); experiment: RNA-seq transcriptomic analysis of senescent cells; format: cell-based; details: IFN gene set and aging gene set
HeLa cells = details: human
[7] = in vitro assays with purified EN

Sequence of human L1 EN domain (1-239) (O00370 1-239): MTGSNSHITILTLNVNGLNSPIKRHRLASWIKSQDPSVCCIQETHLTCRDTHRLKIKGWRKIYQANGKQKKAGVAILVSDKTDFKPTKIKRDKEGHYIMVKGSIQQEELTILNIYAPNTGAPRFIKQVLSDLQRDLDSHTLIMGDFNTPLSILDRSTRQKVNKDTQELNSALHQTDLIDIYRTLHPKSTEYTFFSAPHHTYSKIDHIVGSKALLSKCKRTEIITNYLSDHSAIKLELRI
Sequence of L1 EN (O00370 1-239): as above
Sequence of APE-1 (P27695 whole entry): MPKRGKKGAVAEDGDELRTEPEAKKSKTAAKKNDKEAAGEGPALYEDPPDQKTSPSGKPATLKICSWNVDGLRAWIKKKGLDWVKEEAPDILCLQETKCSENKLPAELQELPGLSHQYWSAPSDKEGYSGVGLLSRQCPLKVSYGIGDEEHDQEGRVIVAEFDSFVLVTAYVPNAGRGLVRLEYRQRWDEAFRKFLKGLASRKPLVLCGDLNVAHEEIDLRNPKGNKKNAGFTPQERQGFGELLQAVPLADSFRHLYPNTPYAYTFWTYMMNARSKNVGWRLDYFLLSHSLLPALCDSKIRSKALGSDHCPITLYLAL

| Structure (SMILES) | L1 EN inhibition in the biochemical assay (in words) [1] | Biochemical assay: maximum inhibition ([1]; plasmid nicking assay) | Biochemical assay: concentration at maximum inhibition [1] | Biochemical assay: maximum inhibition [1] | effect on retrotransposition in the cellular reporter assay (in words) (L1 retrotransposition) | Biochemical assay: concentration at maximum inhibition ([1]; plasmid nicking assay) | further results |
| --- | --- | --- | --- | --- | --- | --- | --- |
| CCn1c2ccccc2c2cc(/C=N\Nc3cc(C)nc4cc5c(cc34)OCO5)ccc21 [AD1, reference compound] | did not inhibit the L1 EN | No inhibition | – | – | – | – | Ki (APE-1): 0.12 µM |
| O=C(O)[C@H](CCCCNc1ccc([N+](=O)[O-])cc1[N+](=O)[O-])Nc1ccc([N+](=O)[O-])cc1[N+](=O)[O-] [AD2] | effective against the L1 EN | – | 1 mM FIG. 2B | 100% inhibition at | did not significantly impact retrotransposition in cells | – | in vitro activity against EN (in words) (L1 EN): clear activity in vitro; Ki (APE-1): 13 µM |
| C/C(C[C@H](c1ccccc1)c1c(O)c2ccccc2oc1=O)=N\Nc1ccc([N+](=O)[O-])cc1[N+](=O)[O-] [AD3] | – | – | 250 μM FIG. 2C | 100% inhibition at | best inhibition in the retrotransposition assay | – | effect on inflammatory markers in senescent cells (in words) [2]: show efficacy; inhibition of L1-induced DNA damage (in words) [3]: best inhibition |
| O=[N+]([O-])c1ccc(Nc2ccc(Nc3ccccc3)c(S(=O)(=O)O)c2)c([N+](=O)[O-])c1 [AD4] | – | – | 1 mM FIG. 2D | 100% inhibition at | – | – | – |
| Cc1cc(=O)oc2c3c(ccc12)O/C(=N/Nc1ccc([N+](=O)[O-])cc1[N+](=O)[O-])C3=O [AD5] | – | – | 50 μM FIG. 2E | 100% inhibition | did not significantly impact retrotransposition in cells | – | in vitro activity against EN (in words) (L1 EN): clear activity in vitro; solubility (in words) [4]: (poor solubility) |
| Cc1cc([N+](=O)[O-])ccc1NC(=S)NC(=O)C(c1ccccc1)c1ccccc1 [AD6] | – | 90% inhibition at | – | – | – | 750 μM FIG. 2F | Cellular assay: retrotransposition efficiency (mean ± SD) (L1 retrotransposition; 10 μM): 10 μM: 79.1 |
| C/C(=N/Nc1ccc([N+](=O)[O-])cc1[N+](=O)[O-])c1ccc(-n2nncc2C(C)(C)C)cc1 [AD7] | – | – | 500 μM FIG. 2F | 80% inhibition at | high activity in the retrotransposition assay | – | in vitro activity against EN (in words) (L1 EN): relatively low efficacy in vitro |
| C[C@@H](Nc1ccc([N+](=O)[O-])cc1[N+](=O)[O-])C(=O)O [AD8] | – | – | 15 mM FIG. 2G | 100% inhibition at | – | – | – |
| C[C@H]1C[C@H](C)CN(CCCNc2ccc(C(=O)Nc3ccc(C(F)(F)F)cc3)cc2[N+](=O)[O-])C1 [AD9] | – | 80% inhibition at | – | – | high activity in the retrotransposition assay | 750 μM FIG. 2H | in vitro activity against EN (in words) (L1 EN; [7]): relatively low efficacy in vitro |
| O=C(NC(NC(=O)c1ccccc1)c1cccc([N+](=O)[O-])c1)c1ccccc1 [AD10] | – | 100% inhibition at | – | – | – | 100 μM FIG. 21 | Cellular assay: retrotransposition efficiency (mean ± SD) (L1 retrotransposition; 50 μM): 50 μM: 68.9 |
| O=C(CCCCCCCCCCC(=O)Nc1cccc([N+](=O)[O-])c1)Nc1cccc([N+](=O)[O-])c1 [AD11] | – | – | 10.0 μM FIG. 2J | 100% inhibition at | – | – | inhibition of L1-induced DNA damage (in words) [5]: better efficacy |
| COc1ccc2c(c1)C(=O)N(CCc1ccc(S(=O)(=O)NC(=O)NC3CCCCC3)cc1)C(=O)C2(C)C [AD12, Gliquidone, reference compound] | – | – | – | – | reduced retrotransposition in the cellular reporter assay; also recorded: high activity in the retrotransposition assay; also recorded: best inhibition in the retrotransposition assay | – | gene set expression by RNA-seq (in words) [6]: decreased expression; effect on inflammatory markers in senescent cells (in words) ([2]; 1 month treatment): show efficacy; inhibition of L1-induced DNA damage (in words) [3]: best inhibition |
| O=C1c2ccc(Oc3ccc4c(c3)C(=O)N(Nc3ccc([N+](=O)[O-])cc3[N+](=O)[O-])C4=O)cc2C(=O)N1Nc1ccc([N+](=O)[O-])cc1[N+](=O)[O-] [AD13] | effective in the biochemical assay | – | 500 μM FIG. 2L | 100% inhibition at | – | – | – |
| CCC1=C(C)CN(C(=O)NCCc2ccc(S(=O)(=O)NC(=O)N[C@H]3CC[C@H](C)CC3)cc2)C1=O [AD15, Glimepiride, reference compound] | inhibited L1 EN activity in the biochemical assay | 100% inhibition at | – | – | reduced retrotransposition in the cellular reporter assay | 2.5 mM FIG. 2N | Cellular assay: retrotransposition efficiency (mean ± SD) (L1 retrotransposition; 50 μM): 50 μM: 17.1 |
| Nn1cnn2c(SCC(=O)Cc3ccc(-c4nc5cc(NC(=O)CSc6nnc7n(N)cnn67)ccc5o4)cc3)nnc12 [AD16] | effective in the biochemical assay | 50% inhibition at | – | – | – | 500 μM FIG. 20 | inhibition of L1-induced DNA damage (in words) ([5]; EN domain-only): better efficacy |
| O=C(Nc1ccc(S(=O)(=O)NCc2ccco2)cc1)c1cc(NS(=O)(=O)c2cccs2)cc(NS(=O)(=O)c2cccs2)c1 [AD18] | effective in the biochemical assay | 50% inhibition at | – | – | did not significantly impact retrotransposition in cells | 750 μM FIG. 2Q | in vitro activity against EN (in words) (L1 EN; [7]): clear activity in vitro |
| COc1ccccc1NC(=O)Nc1nc(Nc2ccc(S(=O)(=O)Nc3nc(C)cc(C)n3)cc2)nc(Oc2cccc(O)c2)n1 [AD19] | effective in the biochemical assay | 75% inhibition at | – | – | – | 250 μM FIG. 2R | – |
| Cc1ccc(NC(=O)CSc2nc(-c3ccccc3F)nc3c2Cc2c(CO)cnc(C)c2O3)cc1 [AD28] | – | – | – | – | – | – | Toxicity at concentration (HeLa cells): Toxicity at 2.5 μM |
| O=C(NCCCCCCNC(=O)Nc1cccc([N+](=O)[O-])c1)Nc1cccc([N+](=O)[O-])c1 [AD32] | – | – | – | – | high activity in the retrotransposition assay | – | in vitro activity against EN (in words) (L1 EN): relatively low efficacy in vitro |
| COc1ccc([N+](=O)[O-])cc1NC(=O)c1ccc2c(c1)N(Cc1cc(C)ccc1C)C(=O)c1ccccc1S2(=O)=O [AD34] | – | – | – | – | did not significantly impact retrotransposition in cells | – | in vitro activity against EN (in words) (L1 EN; [7]): clear activity in vitro |
| COc1ccc(OC)c(NS(=O)(=O)c2ccc(NS(=O)(=O)c3cccc([N+](=O)[O-])c3)cc2)c1 [AD36] | – | – | – | – | high activity in the retrotransposition assay | – | in vitro activity against EN (in words) (L1 EN; [7]): relatively low efficacy in vitro |
| O=C(Cn1nc(-c2ccc(Br)cc2)ccc1=O)NC[C@H]1CC[C@H](C(=O)O)CC1 [AD43] | – | – | – | – | high activity in the retrotransposition assay | – | in vitro activity against EN (in words) (L1 EN; [7]): relatively low efficacy in vitro |
